In PubChem BioAssay AID2060889 (Molecular Pharmacology Branch, DTP, NCI, 2025):

Tested on: LG0567-F671-PDC complex spheroids viability
Assay: Anticancer human tumor LG0567-F671-PDC patient-derived lung adenocarcinoma cell line growth inhibition [RAS]
Details: for viability, T/C: stronger effect = lower value
From the text: RAS pathway inhibitors in Combinations in Complex Spheroids
A high-throughput screen of multi-cell type tumor spheroids was designed to identify active combinations of RAS pathway inhibitors and targeted small molecules. Complex spheroids include a stromal component modeled by human endothelial cells (HUVEC) and fibroblasts modeled by human mesenchymal stem cells (MSCs). The concentration ranges selected for each drug and investigational agent were based upon clinically achievable concentrations if the clinical Cmax of the agent was known.
Compounds. The drugs and investigational agents: abemaciclib (NSC768073), cobimetinib (NSC768068), divarasib (GDC6063, NSC841802), docetaxel (NSC628503), GDC-1971 (RLY-1971, NSC841576), gemcitabine (NSC613327), inavolisib (NSC800729), ipatasertib (NSC767898), KB-0742 (NSC834161), MRTX-1133 (NSC836407), osimertinib (NSC779217), RMC-4630 (NSC839698), RMC-6236 (NSC851965), RMC-6291 (NSC852671), Ro-3306 (NSC812927), sapanisertib (NSC764658), SN-38 (NSC673596), staurosporine (NSC755774), SY5609 (NSC837396), and tovorafenib (DAY101, NSC766906), were obtained from the National Cancer Institute (NCI) Developmental Therapeutics Program Chemical Repository. The FDA-approved anticancer drug set is available from the NCI Developmental Therapeutics Program. […] The stock solutions were prepared in dimethyl sulfoxide (DMSO, Sigma-Aldrich, St. Louis, MO, cat. D2650) at 800-fold the tested concentration and stored at -70 degrees C prior to their use. All drugs and investigational agents were tested over a range starting from a high concentration at or near the clinical Cmax and decreasing in half-log increments. If the clinical Cmax for an agent had not been determined, the highest concentration tested was 10 microM.
Cell Culture. All cells were maintained in an incubator at 37 degrees C and 5% CO2 with 95% humidity. The PDC lines were cultured according to standard operating procedures established by the NCI PDMR. All PDCs were thawed and cultured in Matrigel-coated flasks prepared with a working solution of 1X Ham's F-12 nutrient mix, without supplementation (Invitrogen, Waltham, MA, cat. 11765054), 100 U/mL penicillin-streptomycin (Invitrogen, cat. 15140122), and 2.5% Matrigel (Corning Inc., Corning, NY, cat. 354248) for the first three passages. The 362531-283-R-J2-PDC and 782815-120-R-J1-PDC lines were cultured in 6C/Colon 1B media, which includes advanced DMEM/F-12 (Thermo Fisher Scientific, cat. 12634028), 10 mM HEPES (Thermo Fisher Scientific, cat. 15630080), 1X GlutaMAX supplement (Thermo Fisher Scientific, cat. 35050061), 0.1 mg/mL primocin (InvivoGen, San Diego, CA, cat. ant-pm-2), 10% defined fetal bovine serum, heat inactivated (HyClone Laboratories Inc., Logan, UT, cat. SH30070.03HI), 50% L-WRN conditioned media (ATCC, cat. CRL-3276), 1.25 mM N-Acetyl-L-cysteine (Sigma-Aldrich, cat. A9165), 10 mM nicotinamide (Sigma-Aldrich, cat. N0636), 1X B-27 supplement (Thermo Fisher Scientific, cat. 17504044), 1X N-2 supplement (Thermo Fisher Scientific, cat. 17502048), 50 ng/mL human EGF (Thermo Fisher Scientific, cat. PHG0311), and 10 microM Y-27632 dihydrochloride (Tocris Bioscience, cat. 1254). The K12877-001-R-J1-PDC line was cultured in 6I media, which includes all 6C/Colon 1B media plus 10 ng/mL human FGF-10 (PeproTech, cat. 100-26), 1 ng/mL human FGF-2 (PeproTech, cat. 100-18B), 1 µM prostaglandin E2 (Tocris Bioscience, cat. 2296), […] hydrocortisone (Sigma-Aldrich, cat. H4001), and […] bovine insulin (Sigma-Aldrich, cat. I6634). The K86415-001-R-J1-PDC line was cultured in 6D media, which includes all 6C/Colon 1B media components minus the L-WRN conditioned media. The 485176-168-R4-J1-PDC was cultured in PANC media, which includes all 6C/Colon 1B media plus 100 ng/mL human FGF-10 (PeproTech, cat. 100-26), 500 nM SB-431542 (Selleckchem, cat. S1067), and 10 nM gastrin (Tocris Bioscience, cat. 3006). […]
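Note: spheroids exposed to compound for seven days before readout.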
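Throughout, for IC50: luminescence signal used as a proxy for viable cells.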

Compound: CCc1c2c(nc3ccc(O)cc13)-c1cc3c(c(=O)n1C2)COC(=O)[C@]3(O)CC + C=CC(=O)N1CCN(c2nc(OCC3CCCN3C)nc3c(F)c(-c4nc(N)cc(C)c4C(F)(F)F)c(Cl)cc23)C(C)C1
- IC50 (curve of first compound, second compound 0.00316 µM): < 0.949 nM
- IC50 (curve of first compound, second compound 0.01 µM): < 0.949 nM
- IC50 (curve of first compound, second compound 0.0316 µM): < 0.949 nM
- IC50 (curve of first compound, second compound 0.1 µM): < 0.949 nM
- IC50 (curve of first compound, second compound 0.316 µM): < 0.949 nM
- IC50 (curve of first compound, second compound 1 µM): < 0.949 nM
- viability, T/C (second compound 0.00316 µM, first compound 0.000949 µM): 17.1%
- viability, T/C (second compound 0.00316 µM, first compound 0.003 µM): 14.7%
- viability, T/C (second compound 0.00316 µM, first compound 0.00949 µM): 15%
- viability, T/C (second compound 0.00316 µM, first compound 0.03 µM): 12.2%
- viability, T/C (second compound 0.00316 µM, first compound 0.0949 µM): 7.62%
- viability, T/C (second compound 0.00316 µM, first compound 0.3 µM): 4.2%
- viability, T/C (second compound 0.01 µM, first compound 0.000949 µM): 18%
- viability, T/C (second compound 0.01 µM, first compound 0.003 µM): 13.9%
- viability, T/C (second compound 0.01 µM, first compound 0.00949 µM): 12.2%
- viability, T/C (second compound 0.01 µM, first compound 0.03 µM): 10.3%
- viability, T/C (second compound 0.01 µM, first compound 0.0949 µM): 6.26%
- viability, T/C (second compound 0.01 µM, first compound 0.3 µM): 3.82%
- viability, T/C (second compound 0.0316 µM, first compound 0.000949 µM): 14.9%
- viability, T/C (second compound 0.0316 µM, first compound 0.003 µM): 11.9%
- viability, T/C (second compound 0.0316 µM, first compound 0.00949 µM): 14%
- viability, T/C (second compound 0.0316 µM, first compound 0.03 µM): 8.57%
- viability, T/C (second compound 0.0316 µM, first compound 0.0949 µM): 6.15%
- viability, T/C (second compound 0.0316 µM, first compound 0.3 µM): 3.69%
- viability, T/C (second compound 0.1 µM, first compound 0.000949 µM): 13.6%
- viability, T/C (second compound 0.1 µM, first compound 0.003 µM): 12.4%
- viability, T/C (second compound 0.1 µM, first compound 0.00949 µM): 9.96%
- viability, T/C (second compound 0.1 µM, first compound 0.03 µM): 9.55%
- viability, T/C (second compound 0.1 µM, first compound 0.0949 µM): 6.17%
- viability, T/C (second compound 0.1 µM, first compound 0.3 µM): 2.99%
- viability, T/C (second compound 0.316 µM, first compound 0.000949 µM): 12.7%
- viability, T/C (second compound 0.316 µM, first compound 0.003 µM): 12.2%
- viability, T/C (second compound 0.316 µM, first compound 0.00949 µM): 11.6%
- viability, T/C (second compound 0.316 µM, first compound 0.03 µM): 9.06%
- viability, T/C (second compound 0.316 µM, first compound 0.0949 µM): 6.73%
- viability, T/C (second compound 0.316 µM, first compound 0.3 µM): 3.59%
- viability, T/C (second compound 1 µM, first compound 0.000949 µM): 13.1%
- viability, T/C (second compound 1 µM, first compound 0.003 µM): 13.5%
- viability, T/C (second compound 1 µM, first compound 0.00949 µM): 12.9%
- viability, T/C (second compound 1 µM, first compound 0.03 µM): 9.98%
- viability, T/C (second compound 1 µM, first compound 0.0949 µM): 8.33%
- viability, T/C (second compound 1 µM, first compound 0.3 µM): 4.38%

Compound: NC1c2ccccc2OC12CCN(c1cnc3c(N4CCCc5ncccc54)n[nH]c3n1)CC2 (centres undefined)
- viability, T/C (compound 0.0316 µM): 37.3% [middle of 4 runs]
- viability, T/C (compound 0.1 µM): 26.9% [middle of 4 runs]
- viability, T/C (compound 0.316 µM): 23.4% [middle of 4 runs]
- viability, T/C (compound 1 µM): 23% [middle of 4 runs]
- viability, T/C (compound 3.16 µM): 21.2% [middle of 4 runs]
- viability, T/C (compound 10 µM): 20.4% [middle of 4 runs]
- IC50 (curve of compound): < 31.6 nM
